The source of these data is PubChem BioAssay AID1918993 (Molecular Pharmacology Branch, DTP, NCI, 2023).

This experiment has as its system 233499-124-R-J3-PDC complex spheroid growth. Put plainly: Anticancer human tumor 233499-124-R-J3-PDC patient-derived colon adenocarcinoma cell line growth inhibition [AhR]. As to conditions: for viability, T/C: stronger effect = lower value; for IC50: curve of compound. The source says:
Multicellular complex tumor spheroid response to aryl hydrocarbon receptor antagonists in combination with a variety of drugs and investigational agents in selected tumor cell lines
The current study was undertaken to assess response to aryl hydrocarbon receptor antagonists in combination with standard-of-care drugs and investigational agents in solid tumor complex spheroid models. Complex spheroids include a stromal component modeled by human endothelial cells (HUVEC) and fibroblasts modeled by human mesenchymal stem cells (MSCs). The concentration ranges selected for each drug and investigational agent were based upon clinically achievable concentrations if the clinical Cmax of the agent was known.
Compounds. The drugs and investigational agents: BAY 2416964 (NSC825713), GNF351 (NSC835774), CH-223191 (NSC835775), CPI-455 (NSC825282), aza-TdCyd (NSC777586), decitabine (NSC127716), belinostat (NSC758774), entinostat (NSC756642), pevonedistat (NSC761192), tazemetostat (NSC777109), talazoparib (NSC765396), olaparib (NSC753686), selinexor (NSC780203), nedisertib (M3814, NSC802822), bortezomib (NSC756655), venetoclax (NSC766270), doxorubicin (NSC123127), elimusertib (BAY189344, NSC800525), ceralasertib (AZD6738, NSC777638), TAK-243 (NSC785004), alisertib (NSC759677), etoposide (NSC141540), topotecan (NSC609699), eribulin (NSC707389), gemcitabine (NSC613327), carboplatin (NSC241240), cisplatin (NSC119875), and SN-38 (NSC673596) were obtained from the National Cancer Institute (NCI) Developmental Therapeutics Program Chemical Repository (32). The FDA-approved anticancer drug set is available from the Developmental Therapeutics Program at https://dtp.cancer.gov/organization/dscb/obtaining/available plates.htm. […] The stock solutions were prepared in dimethyl sulfoxide (DMSO, Sigma-Aldrich, St. Louis, MO, cat. D2650), except for the platinum compounds which were prepared in saline (Quality Biological, Gaithersburg, MD, cat. 114-055-101), at 800-fold the tested concentration and stored at -70 degrees C prior to their use. All drugs and investigational agents were tested over a range starting from a high concentration at or near the clinical Cmax and decreasing in half-log increments. If the clinical Cmax for an agent had not been determined, the highest concentration tested was 10 microM (Table 1).
Cell Culture. All cells were maintained in an incubator at 37 degrees C and 5% CO2 with 95% humidity. The PDC lines were cultured according to standard operating procedures established by the NCI PDMR (https://pdmr.cancer.gov). Briefly, all PDCs were thawed and cultured in Matrigel-coated flasks prepared with a working solution of 1X Ham's F-12 nutrient mix, without supplementation (Invitrogen, Waltham, MA, cat. 11765054), 100 U/mL penicillin-streptomycin (Invitrogen, cat. 15140122), and 2.5% Matrigel (Corning Inc., Corning, NY, cat. 354248) for the first three passages. All PDCs were cultured in complete DMEM/F-12 media containing advanced DMEM/F-12 (Invitrogen, cat. 12634028), 4.9% defined fetal bovine serum, heat inactivated (HyClone Laboratories Inc., Logan, UT, cat. SH30070.03HI), 389 ng/mL hydrocortisone (Sigma-Aldrich, cat. H4001), 9.7 ng/mL human EGF recombinant protein (Invitrogen, cat. PHG0313), 23.4 microg/mL adenine (Sigma-Aldrich, cat. A2786), 97.3 U/mL penicillin-streptomycin (Invitrogen, cat. 15140122), 1.9 mM L-glutamine (Invitrogen, cat. 25030081), and 9.7 microM Y-27632 dihydrochloride (Tocris Bioscience, Bristol, United Kingdom, cat. 1254). The PDCs were cultured in complete DMEM/F12 media without 10 microM Y-27632 dihydrochloride for at least two passages prior to the screen. The established cell lines NCI-H1341 and […] were cultured in DMEM/F-12, HEPES (Invitrogen, cat. 11330032), 5% defined fetal bovine serum (HyClone Laboratories Inc., cat. SH30070.03), ITS premix universal culture supplement [insulin (5 microg/mL), transferrin (5 microg/mL), and selenious acid (5 ng/mL)] […]

Values joined by “and” are separate entries in the source; they are usually repeats but may differ in a detail not shown here. Equal entries are not always repeated.
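Further: spheroids exposed to agents for seven days before reading.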

For the molecule `CC(C)CC(NC(=O)C(Cc1ccccc1)NC(=O)c1cnccn1)B(O)O` (stereo not drawn), the IC50 is 15.8 nM and 17.3 nM and 11.3 nM. Further, the viability, T/C (compound 0.000949 µM) is 104% and 97.6% and 89.6%. Also, the viability, T/C (compound 0.003 µM) was 113% and 111% and 104%. Besides, where the note is “compound 0.00949 µM”, the viability, T/C is 87.6% and 93.6% and 59.1%. Besides, the viability, T/C (compound 0.03 µM) is 3.07% and 10.3% and 0.16%. Further, the viability, T/C (compound 0.0949 µM) was 0.13% and 0.15% and 0.11%. Besides, the viability, T/C (compound 0.3 µM) is 0.19% and 0.2% and 0.18%.
On to `CC1(C)CCC(CN2CCN(c3ccc(C(=O)NS(=O)(=O)c4ccc(NCC5CCOCC5)c([N+](=O)[O-])c4)c(Oc4cnc5[nH]ccc5c4)c3)CC2)=C(c2ccc(Cl)cc2)C1`, for which the IC50 was > 10000 nM and 8740 nM and 7260 nM. Where the note is “compound 0.0316 µM”, the viability, T/C is 87.2% and 90.9% and 106%. Besides, under “compound 0.1 µM”, the viability, T/C is 102% and 112% and 109%. Also, the viability, T/C (compound 0.316 µM) was 92.4% and 105% and 97.8%. Besides, the viability, T/C (compound 1 µM) is 105% and 101% and 104%. Further, the viability, T/C (compound 3.16 µM) was 112% and 114% and 98.7%. Moreover, the viability, T/C (compound 10 µM) is 109% and 42.8% and 31.2%.
In the case of `CC1COCCN1c1cc(-c2ccnn2C)c2ccnc(-c3ccn[nH]3)c2n1` (stereo not drawn), the IC50 was 784 nM and > 1000 nM and 642 nM. Also, the viability, T/C (compound 0.00316 µM) was 94.6% and 92.4% and 98.3%. Moreover, the viability, T/C (compound 0.01 µM) was 88.1% and 91.6% and 75%. Besides, under “compound 0.0316 µM”, the viability, T/C is 91.3% and 96.4% and 105%. The viability, T/C (compound 0.1 µM) is 89.3% and 82.8% and 95.2%. Further, where the note is “compound 0.316 µM”, the viability, T/C is 75.3% and 74.5% and 69.8%. In addition, the viability, T/C (compound 1 µM) was 43% and 64% and 37.5%.
Consider `CCN(c1cc(-c2ccc(CN3CCOCC3)cc2)cc(C(=O)NCc2c(C)cc(C)[nH]c2=O)c1C)C1CCOCC1`, for which the half-inhibitory concentration (IC50) was above 3000 nM. Moreover, for the setting “compound 0.00949 µM”, the viability, T/C is 92.4% and 97.3% and 86.5%. In addition, the viability, T/C (compound 0.03 µM) was 107% and 97% and 98%. Besides, for the setting “compound 0.0949 µM”, the viability, T/C was 96.5% and 90.3% and 94.9%. The viability, T/C (compound 0.3 µM) is 103% and 96.3% and 91.4%. Moreover, the viability, T/C (compound 0.949 µM) is 102% and 109% and 100%. The viability, T/C (compound 3 µM) is 106% and 97.9% and 96.6%.
Turning to `CC[C@@]1(O)C(=O)OCc2c1cc1n(c2=O)Cc2cc3c(CN(C)C)c(O)ccc3nc2-1`, the half-maximal inhibitory concentration (IC50) was above 100 nM. For the same molecule, where the note is “compound 0.000316 µM”, the viability, T/C was 104% (2×) and 97.5%. Besides, under “compound 0.001 µM”, the viability, T/C is 107% and 86.7% and 95.5%. The viability, T/C (compound 0.00316 µM) was 94.7% and 92% and 87.1%. In addition, for the setting “compound 0.01 µM”, the viability, T/C was 95% and 99.2% and 93.8%. Further, the viability, T/C (compound 0.0316 µM) is 86.8% and 86.6% and 108%. Moreover, the viability, T/C (compound 0.1 µM) is 92.3% and 83.2% and 89.9%.
Regarding `CCc1c2c(nc3ccc(O)cc13)-c1cc3c(c(=O)n1C2)COC(=O)[C@]3(O)CC`, the IC50 was above 300 nM. Also, under “compound 0.000949 µM”, the viability, T/C was 117% and 96.2% and 99.4%. Where the note is “compound 0.003 µM”, the viability, T/C was 93.8% and 87.6% and 85.8%. Besides, for the setting “compound 0.00949 µM”, the viability, T/C was 89.5% and 85.3% and 77.4%. Besides, the viability, T/C (compound 0.03 µM) was 69.6% and 75.1% and 56.9%. In addition, the viability, T/C (compound 0.0949 µM) was 84.1% and 84% and 77.8%. Besides, the viability, T/C (compound 0.3 µM) is 98.5% and 95.3% and 73.3%.
On to `COc1cc(C2c3cc4c(cc3C(OC3OC5COC(C)OC5C(O)C3O)C3COC(=O)C23)OCO4)cc(OC)c1O` (stereo not drawn), for which the IC50 is above 10000 nM. Moreover, the viability, T/C (compound 0.0316 µM) was 101% and 87.7% and 99.6%. Further, the viability, T/C (compound 0.1 µM) is 92.9% and 95.8% and 106%. The viability, T/C (compound 0.316 µM) was 98.6% and 95.4% and 95.7%. Besides, for the setting “compound 1 µM”, the viability, T/C was 109% and 93.1% and 94.7%. Moreover, the viability, T/C (compound 3.16 µM) was 91.3% and 92.4% and 110%. Moreover, the viability, T/C (compound 10 µM) was 93.3% and 78.6% and 85.6%.
Consider `COc1cc(Nc2ncc3c(n2)-c2ccc(Cl)cc2C(c2c(F)cccc2OC)=NC3)ccc1C(=O)O`, for which the 50% inhibitory concentration (IC50) is above 10000 nM. Further, the viability, T/C (compound 0.0316 µM) was 86.8% and 75.8% and 70.1%. In addition, the viability, T/C (compound 0.1 µM) is 82.6% and 65.5% and 75.6%. In addition, where the note is “compound 0.316 µM”, the viability, T/C is 80.1% and 102% and 79.4%. Further, the viability, T/C (compound 1 µM) is 84.1% and 87.8% and 83.3%. For the setting “compound 3.16 µM”, the viability, T/C was 97.7% and 89.4% and 91.1%. Besides, where the note is “compound 10 µM”, the viability, T/C is 82.9% and 90.2% and 86%.
For `COc1cccc2c1C(=O)c1c(O)c3c(c(O)c1C2=O)CC(O)(C(=O)CO)CC3OC1CC(N)C(O)C(C)O1` (stereo not drawn), the 50% inhibitory concentration (IC50) is > 10000 nM and 5810 nM. Besides, the viability, T/C (compound 0.0316 µM) was 98% and 91.4% and 90.8%. The viability, T/C (compound 0.1 µM) is 85.2% and 85.3% and 89.7%. Also, the viability, T/C (compound 0.316 µM) was 90.2% and 92.3% and 93.3%. Besides, the viability, T/C (compound 1 µM) is 97.9% and 97.3% and 87.4%. In addition, the viability, T/C (compound 3.16 µM) was 66.9% and 78% and 60.5%. Moreover, the viability, T/C (compound 10 µM) is 60% and 71.6% and 40.6%.
